Legend:
[1] = tested on: sunflower hybrids and lines (A122T, A205V, A205V/A122T); assay: Field trial North Dakota 2006, phytotoxicity ratings after imazamox or imazapyr, Example 3; type: in vivo, Helianthus annuus; conditions: for Phytotoxicity Rating (% Crop Injury): 160 g ai/ha + 0.25% NIS
Method: • Spray volume: 10 gallons per acre (GPA) (or 100 liters/ha) for backpack sprayer or 20 GPA (or 200 liters/ha) for tractor mounted boom • Growth Stage at Herbicide Application: 2-4 leaves
Entry 15 (WT Maintainer line) was left unsprayed in all treatment blocks.
Phytotoxicity ratings were assessed at 7 and 21 days following herbicide application.
The data was subjected to an ANOVA analysis and the means from the 3 repetitions are presented in Table 7 (phytotoxicity at 7 days post-treatment) and Table 8 (phytotoxicity at 21 days post-treatment).

[2] = tested on: AHAS enzyme, A122T Homozygous sunflower; assay: AHAS enzyme activity assay, leaf extract; type: biochemical, Helianthus annuus; conditions: A122T homozygous hybrid (Set 1); 100 μM
Method: (§1) Twelve greenhouse grown sunflower plants from each of the lines depicted in Table 21 were bulked and subjected to an AHAS enzyme activity assay via the method of Singh et al. (1988) Anal. Biochem. 171:173-179. Each activity assay was repeated twice. Due to the large number of samples, the experiment was split into two sets (Table 21).
(§2) Young, actively growing leaves, from four week old plantlets, were ground in a mortar and pestle with liquid N2 and extracted with a buffer composed of 100 mM Pyruvate, 200 mM KH2PO4, 20 mM MgCl2, 2 mM thiamine pyrophosphate and […]. Plant extracts were then spun through a 10 mL Zeba TM desalt spin column (Pierce #89893) as per the manufacturer's recommendation. The inhibition assay was performed as described by Singh et al. (1988) Anal. Biochem. 171:173-179. Assays were conducted in a 96-well format. Fifty μl of inhibitor was added to each well containing 50 μl of soluble protein extract to give final concentrations of 0.78, 1.56, 3.125, 6.25, 12.5, 25, 50 and 100 μM imazamox or 0.78, 1.56, 3.125, 6.25, 12.5, 25, 50 and 100 μM imazapyr. Zero herbicide controls were also included for each line. Reactions were processed as outlined by Singh et al. (1988) Anal. Biochem. 171:173-179. Absorbance was measured at 530 nm. AHAS activity, expressed as the mean of the absorbance values for each treatment, was presented as a percentage of the mean of the zero-herbicide controls.

[3] = tested on: AHAS enzyme, A205V Homozygous sunflower; assay: AHAS enzyme activity assay, leaf extract; type: biochemical, Helianthus annuus; conditions: A205V homozygous hybrid (Set 1); 100 μM
Method: as §1, §2

[4] = tested on: AHAS enzyme, A122T/A205V Heterozygous sunflower; assay: AHAS enzyme activity assay, leaf extract; type: biochemical, Helianthus annuus; conditions: A122T/A205V heterozygous hybrid (Set 1); 100 μM
Method: as §1, §2

`CC(C)C1(C)N=C(c2ncccc2C(=O)O)NC1=O` (centres unmarked) [imazapyr] was tested, and the “Phytotoxicity Rating (% Crop Injury)” value ([1]; 1-hybrid (WT × IMI restorer, A205 hetero), 7 DAT) was 16.7%, the “Phytotoxicity Rating (% Crop Injury)” value ([1]; 1-hybrid (WT × IMI restorer, A205 hetero), 21 DAT) was 20.0% and the “Phytotoxicity Rating (% Crop Injury)” value ([1]; 3-hybrid (WT × IMI restorer, A205 hetero), 7 DAT) was 35.0%. The “Phytotoxicity Rating (% Crop Injury)” value ([1]; 3-hybrid (WT × IMI restorer, A205 hetero), 21 DAT) was 43.3%, the “Phytotoxicity Rating (% Crop Injury)” value ([1]; 4-line (IMI Restorer, A205 homo), 7 DAT) was 11.7% and the “Phytotoxicity Rating (% Crop Injury)” value ([1]; 4-line (IMI Restorer, A205 homo), 21 DAT) was 6.7%. The “Phytotoxicity Rating (% Crop Injury)” value ([1]; 6-hybrid (IMI CMS × IMI restorer, A205 homo), 7 DAT) was 8.3%, the “Phytotoxicity Rating (% Crop Injury)” value ([1]; 6-hybrid (IMI CMS × IMI restorer, A205 homo), 21 DAT) was 3.3% and the “Phytotoxicity Rating (% Crop Injury)” value ([1]; 7-hybrid (WT-CMS × IMI restorer, A205 hetero), 7 DAT) was 21.7%. For the same compound, the “Phytotoxicity Rating (% Crop Injury)” value ([1]; 7-hybrid (WT-CMS × IMI restorer, A205 hetero), 21 DAT) was 36.7%, the “Phytotoxicity Rating (% Crop Injury)” value ([1]; 8-hybrid (WT × GM40 restorer, A122 hetero), 7 DAT) was 13.3% and the “Phytotoxicity Rating (% Crop Injury)” value ([1]; 8-hybrid (WT × GM40 restorer, A122 hetero), 21 DAT) was 11.7%. The “Phytotoxicity Rating (% Crop Injury)” value ([1]; 9-line (GM40 restorer, A122 homo), 7 DAT) was 8.3%, the “Phytotoxicity Rating (% Crop Injury)” value ([1]; 9-line (GM40 restorer, A122 homo), 21 DAT) was 5.0% and the “Phytotoxicity Rating (% Crop Injury)” value ([1]; 10-hybrid (IMI CMS × GM40 restorer, A205/A122 hetero/double), 7 DAT) was 3.3%. For the same compound, the “Phytotoxicity Rating (% Crop Injury)” value ([1]; 10-hybrid (IMI CMS × GM40 restorer, A205/A122 hetero/double), 21 DAT) was 0.0%, the “Phytotoxicity Rating (% Crop Injury)” value ([1]; 11-hybrid (GM40 CMS × IMI restorer, A205/A122 hetero/double), 7 DAT) was 3.3% and the “Phytotoxicity Rating (% Crop Injury)” value ([1]; 11-hybrid (GM40 CMS × IMI restorer, A205/A122 hetero/double), 21 DAT) was 0.0%. The “Phytotoxicity Rating (% Crop Injury)” value ([1]; 12-hybrid (IMI CMS × GM40 restorer, A205/A122 hetero/double), 7 DAT) was 5.0%, the “Phytotoxicity Rating (% Crop Injury)” value ([1]; 12-hybrid (IMI CMS × GM40 restorer, A205/A122 hetero/double), 21 DAT) was 1.7% and the “Phytotoxicity Rating (% Crop Injury)” value ([1]; 13-hybrid (GM40 CMS × GM40 restorer, A122 homo), 7 DAT) was 5.0%. For the same compound, the “Phytotoxicity Rating (% Crop Injury)” value ([1]; 13-hybrid (GM40 CMS × GM40 restorer, A122 homo), 21 DAT) was 1.7%, the “Phytotoxicity Rating (% Crop Injury)” value ([1]; 14-hybrid (GM40 CMS × GM40 restorer, A122 homo), 7 DAT) was 8.3% and the “Phytotoxicity Rating (% Crop Injury)” value ([1]; 14-hybrid (GM40 CMS × GM40 restorer, A122 homo), 21 DAT) was 3.3%. The “Phytotoxicity Rating (% Crop Injury)” value ([1]; 15-hybrid (WT × GM40 restorer, A122 hetero), 7 DAT) was 8.3%, the “Phytotoxicity Rating (% Crop Injury)” value ([1]; 15-hybrid (WT × GM40 restorer, A122 hetero), 21 DAT) was 21.7% and the “Phytotoxicity Rating (% Crop Injury)” value ([1]; 16-hybrid (WT × GM40 restorer, A122 hetero), 7 DAT) was 10.0%. For the same compound, the “Phytotoxicity Rating (% Crop Injury)” value ([1]; 16-hybrid (WT × GM40 restorer, A122 hetero), 21 DAT) was 23.3%, the phytotoxicity ([1]; heterozygous A205V entries, 160 g ai/ha, 21 DAT) was 20-43% and the AHAS activity [2] was 64 % of untreated control. The AHAS activity [3] was 42 % of untreated control and the AHAS activity [4] was 60%.

From US20150148235A1, “HERBICIDE-RESISTANT SUNFLOWER PLANTS WITH MULTIPLE HERBICIDE RESISTANT ALLELES OF AHASL1 AND METHODS OF USE” (NIDERA S.A., priority 2013, published 2015)
